Reference: patent US11951190B2, “Use of labeled inhibitors of prostate specific membrane antigen (PSMA), as agents for the treatment of prostate cancer” (DEUTSCHES KREBSFORSCHUNGSZENTRUM, priority 2013, dated 2024)
One block for each compound: values may come before it.

Assays:
[1] = target: T1, PSMA expressing cell line LNCaP (Homo sapiens, UniProt Q04609); test: Competitive cell binding assay (68Ga-labeled [Glu-urea-Lys(Ahx)]2-HBED-CC radioligand); settings: LNCaP cells, competition with 68Ga-labeled [Glu-urea-Lys(Ahx)]2-HBED-CC
T1 construct: using the PSMA expressing cell line LNCaP; host or cells: LNCaP
Procedure: (§1) In order to compare the series of novel compounds the competitive binding affinity and the specific internalization was analyzed using the PSMA expressing cell line LNCaP. To determine specific cellular uptake, cells were blocked with 2-(phosphonomethyl)-pentanedioic acid (PMPA). The inhibition potency was also investigated by the enzyme-based NAALADase assay.
(§2) For binding studies and in vivo experiments LNCaP cells (metastatic lesion of human prostatic adenocarcinoma, ATCC CRL-1740) were cultured in RPMI medium supplemented with 10% fetal calf serum and Glutamax (PAA, Austria). During cell culture, cells were grown at 37° C. in an incubator with humidified air, equilibrated with 5% CO2. The cells were harvested using trypsin-ethylenediaminetetraacetic acid (trypsin-EDTA; 0.25% trypsin, 0.02% EDTA, all from PAA, Austria) and washed with PBS.
The competitive cell binding assay and internalization experiments were performed as described previously (Eder et al. 2012).

[2] = tested on: LNCaP cells; test: Specific cell uptake and internalization; type: cell-based, human; settings: 45 min
Procedure: as §1, §2
To determine the specific cell uptake and internalization, 10^5 cells were seeded in poly-L-lysine coated 24-well cell culture plates 24 h before incubation. After washing, the cells were incubated with 25 nM of the radiolabeled compounds for 45 min at 37° C. and at 4° C., respectively. Specific cellular uptake was determined by competitive blocking with 2-(phosphonomethyl)pentanedioic acid (500 μM final concentration, PMPA, Axxora, Loerrach, Germany). Cellular uptake was terminated by washing 4 times with 1 mL of ice-cold PBS. Cells were subsequently incubated twice with 0.5 mL glycine-HCl in PBS (50 mM, pH=2.8) for 5 min to remove the surface-bound fraction. The cells were washed with 1 mL of ice-cold PBS and lysed using 0.3 N NaOH (0.5 mL). The surface-bound and the internalized fractions were measured in a gamma counter. The cell uptake was calculated as percent of the initially added radioactivity bound to 10^6 cells [% ID/10^6 cells].

[3] = tested on: LNCaP tumor xenografts; test: Dynamic microPET imaging; type: in vivo, athymic male nude mice; settings: 68Ga-labeled
Procedure: Whole-body coronal microPET images of an athymic male nude mice bearing LNCaP tumor xenografts. […] Approximately 15 MBq/mouse were injected. […] The values are expressed as mean SUV (standardized uptake values).
For the microPET studies, 10-25 MBq of the radiolabeled compounds in a volume of 0.15 ml (˜0.5 nmol) were injected via a lateral tail vein into mice bearing LNCaP tumor xenografts. The anesthetized animals (2% sevoflurane, Abbott, Wiesbaden, Germany) were placed in prone position into the Inveon small animal PET scanner (Siemens, Knoxville, Tn., USA) to perform dynamic microPET scans and 20 min-static scans; c.f. FIG. 1, 3, 5-14

[4] = tested on: LNCaP tumor xenografts; test: Biodistribution / organ distribution in LNCaP tumor-bearing mice; type: in vivo, BALB/c nu/nu mice; settings: for PSMA-specific uptake (organ distribution): 68Ga labeled, 1 h post injection of 0.06 nmol, blocking with 2 mg/kg 2-PMPA
Procedure: FIG. 2: Organ Distribution at 1 h post injection. […] Data are expressed as mean % ID/g tissue±SD (n=3).
The favourable pharmacokinetics led to extremely high tumor-to-background ratios (Tumor/Blood: 1058; Tumor/Muscle: 529) after 24 hours
7- to 8-week-old male BALB/c nu/nu mice (Charles River Laboratories) were subcutaneously inoculated into the right trunk with 5×10^6 cells of LNCaP (in 50% Matrigel; Becton Dickinson, Heidelberg, Germany). The tumors were allowed to grow until approximately 1 cm3 in size. The radiolabeled compounds were injected into the tail vein (approx. 1 MBq per mouse; 0.06 nmol). […] Organs of interest were dissected, blotted dry, and weighed. The radioactivity was measured using a gamma counter and calculated as % ID/g.

[5] = for Ga-68, 25 nM radiolabeled compound
[6] = 177Lu-labeled, 24 h post injection of 0.06 nmol, n=5

T1 sequence (Q04609 whole entry): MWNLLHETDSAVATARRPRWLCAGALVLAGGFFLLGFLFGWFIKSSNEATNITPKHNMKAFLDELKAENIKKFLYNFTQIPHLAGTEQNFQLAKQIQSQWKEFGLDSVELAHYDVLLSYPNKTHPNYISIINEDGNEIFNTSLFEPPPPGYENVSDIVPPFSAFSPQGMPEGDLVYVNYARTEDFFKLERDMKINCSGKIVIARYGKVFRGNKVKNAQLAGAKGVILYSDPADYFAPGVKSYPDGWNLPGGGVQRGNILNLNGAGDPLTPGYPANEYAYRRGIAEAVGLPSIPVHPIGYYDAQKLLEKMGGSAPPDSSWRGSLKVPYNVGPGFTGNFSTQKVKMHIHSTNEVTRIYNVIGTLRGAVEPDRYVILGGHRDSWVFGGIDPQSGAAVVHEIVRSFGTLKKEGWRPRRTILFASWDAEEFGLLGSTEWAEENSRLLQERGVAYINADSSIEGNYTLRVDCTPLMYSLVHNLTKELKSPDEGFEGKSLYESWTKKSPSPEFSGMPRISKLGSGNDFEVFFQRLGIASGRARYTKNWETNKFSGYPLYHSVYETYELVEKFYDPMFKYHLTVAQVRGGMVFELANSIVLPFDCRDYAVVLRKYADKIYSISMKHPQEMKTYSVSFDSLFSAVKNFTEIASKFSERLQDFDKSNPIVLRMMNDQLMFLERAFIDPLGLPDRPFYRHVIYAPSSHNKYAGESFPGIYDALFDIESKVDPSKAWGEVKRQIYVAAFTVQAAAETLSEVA

Compound: O=C(O)CC[C@H](NC(=O)N[C@@H](CCCCNC(=O)C1CCC(CNC(=O)C2CCC(CNC(=O)CN3CCN(CC(=O)O)CCN(CC(=O)O)CCN(CC(=O)O)CC3)CC2)CC1)C(=O)O)C(=O)O (stereo partly drawn) [MB31]
IC50 [1]: 91.8 nM

Compound: O=C(O)CC[C@H](NC(=O)N[C@@H](CCCCNC(=O)C1CCC(CNC(=O)c2ccc(CNC(=O)CN3CCN(CC(=O)O)CCN(CC(=O)O)CCN(CC(=O)O)CC3)cc2)CC1)C(=O)O)C(=O)O (stereo partly drawn) [MB33]
IC50 [1]: 59.3 nM

Compound: O=C(O)CC[C@H](NC(=O)N[C@@H](CCCCNC(=O)c1ccc(CNC(=O)c2ccc(CNC(=O)c3ccc(CNC(=O)CN4CCN(CC(=O)O)CCN(CC(=O)O)CCN(CC(=O)O)CC4)cc3)cc2)cc1)C(=O)O)C(=O)O [MB4]
IC50 [1]: 0.74 ± 0.5 nM
Internalization [2, 5]: 14.18 ± 0.98 for Ga-68 % IA/10^6 cells

Compound: O=C(O)CCC(NC(=O)NC(CCCCNC(=O)c1ccc(CNC(=O)c2ccc(CNC(=O)c3ccc(CNC(=O)c4ccc(CNC(=O)CN5CCN(CC(=O)O)CCN(CC(=O)O)CCN(CC(=O)O)CC5)cc4)cc3)cc2)cc1)C(=O)O)C(=O)O (stereo not drawn) [MB10]
IC50 [1]: 8.67 ± 1.58 nM

Compound: O=C(O)CCC(NC(=O)NC(CCCCNC(=O)c1ccc(CNC(=O)CN2CCN(CC(=O)O)CCN(CC(=O)O)CCN(CC(=O)O)CC2)cc1)C(=O)O)C(=O)O (stereo not drawn) [MB2]
IC50 [1]: 2.75 ± 0.82 nM
Internalization [2, 5]: 8.78 ± 3.96 for Ga-68 % IA/10^6 cells

Compound: O=C(O)CCC(NC(=O)NC(CCCCNC(=O)c1ccc(CNC(=O)c2ccc(CNC(=O)CN3CCN(CC(=O)O)CCN(CC(=O)O)CCN(CC(=O)O)CC3)cc2)cc1)C(=O)O)C(=O)O (stereo not drawn) [MB3]
IC50 [1]: 10.5 ± 6.06 nM

Compound: O=C(O)CCC(NC(=O)NC(CCCCNC(=O)C1CCC(CNC(=O)CN2CCN(CC(=O)O)CCN(CC(=O)O)CCN(CC(=O)O)CC2)CC1)C(=O)O)C(=O)O (stereo not drawn) [MB22]
IC50 [1]: 52.8 nM

Compound: O=C(O)CCC(NC(=O)NC(CCCCNC(=O)C(Cc1ccc2ccccc2c1)NC(=O)c1ccc(CNC(=O)CN2CCN(CC(=O)O)CCN(CC(=O)O)CCN(CC(=O)O)CC2)cc1)C(=O)O)C(=O)O (stereo not drawn) [MB24]
IC50 [1]: 3.33 nM

Second part, led by results:

IC50 [1]: 26.2 nM
Compound: O=C(O)CC[C@H](NC(=O)N[C@@H](CCCCNC(=O)C1CCC(CNC(=O)C(Cc2ccc3ccccc3c2)NC(=O)CN2CCN(CC(=O)O)CCN(CC(=O)O)CCN(CC(=O)O)CC2)CC1)C(=O)O)C(=O)O (stereo partly drawn) [MB35]

time of maximum kidney uptake (highest point in the time-activity-curve) ([3]; dynamic PET, after injection of the radiotracer): 15 min
PSMA-specific uptake (organ distribution) ([4]; listed as MB 17, 2 mg/kg): high PSMA-specific tumor uptake
kidney uptake [4, 6]: 2.13±1.36 % ID/g
liver uptake [4, 6]: 0.08±0.03 % ID/g
lung uptake [4, 6]: 0.11±0.13 % ID/g
spleen uptake [4, 6]: 0.13±0.05 % ID/g
tumor uptake [4, 6]: 10.58±4.50 % ID/g
Compound: O=C(O)CC[C@H](NC(=O)N[C@@H](CCCCNC(=O)[C@H](Cc1ccc2ccccc2c1)NC(=O)[C@H]1CC[C@H](CNC(=O)CN2CCN(CC(=O)O)CCN(CC(=O)O)CCN(CC(=O)O)CC2)CC1)C(=O)O)C(=O)O [MB17]
Internalization [2, 5]: 17.02 ± 4.36 for Ga-68 % IA/10^6 cells
Internalization ([2]; for Lu-177, 25 nM radiolabeled compound): 17.51 ± 3.99 for Lu-177 % IA/10^6 cells
background clearance and kidney enrichment in PET diagrams ([3]; after 2 hours): rapid background clearance as well as a substantial reduction of the enrichment in the kidney
PSMA-specific uptake (organ distribution) ([4]; 2 mg/kg): PSMA-specific uptake in the tumor and the kidneys

IC50 [1]: 6.64 nM
Compound: O=C(O)CCC(NC(=O)NC(CCCCNC(=O)C(Cc1ccc2ccccc2c1)NC(=O)CCCCCNC(=O)CN1CCN(CC(=O)O)CCN(CC(=O)O)CCN(CC(=O)O)CC1)C(=O)O)C(=O)O (stereo not drawn) [MB25]

IC50 [1]: 12.4 ± 5.1 nM
Compound: O=C(O)CC[C@H](NC(=O)N[C@@H](CCCCNC(=O)[C@@H](Cc1ccc2ccccc2c1)NC(=O)[C@H]1CC[C@H](CNC(=O)CN2CCN(CC(=O)O)CCN(CC(=O)O)CCN(CC(=O)O)CC2)CC1)C(=O)O)C(=O)O [MB17.D]
